Data as given in ChEMBL document CHEMBL1201862, “PubChem BioAssay data set” (2004).
Calls of active or inactive are those of the source.

Tests used:
[1] = target: Eukaryotic translation initiation factor 4H (Homo sapiens, UniProt Q15056); assay: inhibitors of translation initiation factor eIF4H – SAR follow-up (AID 435011); format: functional
[2] = target: Polyadenylate-binding protein 1 (Homo sapiens, UniProt P11940); assay: PABP inhibition in translation initiation, SAR follow-up (AID 435018); format: functional
X-box-binding protein 1 = X-box-binding protein 1 (Homo sapiens, UniProt P17861); format: functional, Cricetulus griseus;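 also: confirmatory dose-response counter-screen serving a CHOP assay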
Genome polyprotein = Genome polyprotein (dengue virus type 2, UniProt P29990); assay: flavivirus cap methylation enzyme inhibition – biochemical, confirmation dose response, primary screen (AID 588689); format: functional
Bcl-2-like protein 10 = target: T1, Bcl-2-like protein 10 (Homo sapiens, UniProt Q9HD36); assay: Bcl-B/TR3 peptide binding disruption – biochemical, fluorescence polarization, FITC-TR3 peptide, selectivity assay for Bfl-1 inhibitor project, primary screen (AID 748);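 also: fluorescence polarization from a fluorescein-labelled TR3 peptide binding purified Bcl-B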
T1 sequence (Q9HD36 whole entry): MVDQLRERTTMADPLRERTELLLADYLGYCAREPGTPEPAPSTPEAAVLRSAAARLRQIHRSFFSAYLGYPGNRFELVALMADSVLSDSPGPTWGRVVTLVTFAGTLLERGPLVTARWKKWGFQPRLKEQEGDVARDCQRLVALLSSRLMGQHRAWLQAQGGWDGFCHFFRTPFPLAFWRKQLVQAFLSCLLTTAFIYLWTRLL

[3] = Trypanosoma cruzi growth suppression in host cells – NIH3T3 host cells, beta-gal luminescence, confirmation (AID 2044); format: functional, cell-based;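 also: intracellular parasites grown in NIH/3T3 mouse fibroblasts as host cells; luminescent beta-galactosidase reporter signal from transgenic T. cruzi replicating inside host cells; inhibitors lower the luminescence signal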
[4] = NIH3T3 cell viability loss – ATP luminescence, mouse fibroblasts, counter-screen, dose response (AID 2010); format: functional, cell-based;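 also: cells exposed to compound for about 90 hours before reading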
[5] = target: T2, Corticotropin-releasing factor receptor 2/Corticotropin-releasing factor-binding protein (Homo sapiens, UniProt P24387+Q13324); assay: activators of CRF receptor 2 with binding protein – uHTS hits, confirmation (AID 602473); format: functional; details: read-out: EC50_Mean
T2 sequence (Q13324 whole entry): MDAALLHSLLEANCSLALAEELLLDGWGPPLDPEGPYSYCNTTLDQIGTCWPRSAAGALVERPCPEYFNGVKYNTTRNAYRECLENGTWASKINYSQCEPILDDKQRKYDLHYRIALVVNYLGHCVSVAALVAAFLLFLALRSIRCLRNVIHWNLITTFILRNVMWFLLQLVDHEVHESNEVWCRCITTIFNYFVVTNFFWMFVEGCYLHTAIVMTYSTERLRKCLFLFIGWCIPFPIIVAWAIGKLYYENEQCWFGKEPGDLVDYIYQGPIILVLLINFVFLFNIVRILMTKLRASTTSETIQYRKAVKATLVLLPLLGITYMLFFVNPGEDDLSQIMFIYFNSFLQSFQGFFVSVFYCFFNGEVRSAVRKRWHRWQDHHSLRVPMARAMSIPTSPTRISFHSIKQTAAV
T2 sequence (P24387 whole entry): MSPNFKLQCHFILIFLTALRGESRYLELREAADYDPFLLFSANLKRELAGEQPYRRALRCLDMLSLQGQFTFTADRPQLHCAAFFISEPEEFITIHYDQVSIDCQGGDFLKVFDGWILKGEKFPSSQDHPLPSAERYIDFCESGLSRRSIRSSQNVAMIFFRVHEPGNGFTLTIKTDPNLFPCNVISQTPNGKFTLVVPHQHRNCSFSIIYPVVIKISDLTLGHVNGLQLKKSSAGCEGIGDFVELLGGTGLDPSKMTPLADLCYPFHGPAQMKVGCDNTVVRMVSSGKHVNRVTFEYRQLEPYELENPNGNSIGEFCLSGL

[6] = target: Acyl-homoserine lactone acylase PvdQ (Pseudomonas aeruginosa (strain LESB58), UniProt Q9I194); assay: PvdQ acylase enzyme activity blockers – biochemical, fluorescence, plate reader and imaging, cherry-picks, dose response (AID 493231)
[7] = target: E3 ubiquitin-protein ligase XIAP (Homo sapiens, UniProt P98170); assay: Counter Screen using XIAP-Bir3 for Chemical Antagonists of Bir1/2 domains of IAP-family anti-apoptotic proteins. [Related pubchem assays (depositor defined):AID1018, AID1449, AID1514, AID1638, AID1749, AID1750, AID488957, AID488963]
[8] = target: T3, Carboxy-terminal domain RNA polymerase II polypeptide A small phosphatase 1 (Homo sapiens, UniProt Q9GZU7); assay: CTDSP1 inhibitors, concentration-response, biochemical, absorbance readout, ultra-high-throughput screen actives (AID 540297); format: functional
T3 sequence (Q9GZU7 whole entry): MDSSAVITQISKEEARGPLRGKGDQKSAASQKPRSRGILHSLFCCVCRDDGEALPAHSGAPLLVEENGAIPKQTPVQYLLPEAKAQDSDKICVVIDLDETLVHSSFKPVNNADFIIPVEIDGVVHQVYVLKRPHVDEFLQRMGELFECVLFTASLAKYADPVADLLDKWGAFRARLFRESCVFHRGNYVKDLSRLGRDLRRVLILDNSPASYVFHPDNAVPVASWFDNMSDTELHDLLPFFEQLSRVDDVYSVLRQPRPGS

CAAX prenyl protease 2 = CAAX prenyl protease 2 (Saccharomyces cerevisiae S288c, UniProt Q03530); format: biochemical
[9] = system: Streptococcus sp. 'group A'; assay: Streptococcus pyogenes SK(-)GAS viability under kanamycin – luminescence, BacTiterGlo, confirmation, counter-screen for streptokinase expression inhibitor project, dose response (AID 1900); format: functional, organism-based
Streptokinase A = target: T4, Streptokinase A (Streptococcus pyogenes serotype M1, UniProt P10520); assay: viability-normalized secreted streptokinase activity reduction – plasminogen activation absorbance, OD405, dose response (AID 1914); format: functional, Streptococcus pyogenes M1 GAS;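 also: secreted streptokinase activity via plasminogen activation per viability signal from cell pellet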
T4 sequence (P10520 whole entry): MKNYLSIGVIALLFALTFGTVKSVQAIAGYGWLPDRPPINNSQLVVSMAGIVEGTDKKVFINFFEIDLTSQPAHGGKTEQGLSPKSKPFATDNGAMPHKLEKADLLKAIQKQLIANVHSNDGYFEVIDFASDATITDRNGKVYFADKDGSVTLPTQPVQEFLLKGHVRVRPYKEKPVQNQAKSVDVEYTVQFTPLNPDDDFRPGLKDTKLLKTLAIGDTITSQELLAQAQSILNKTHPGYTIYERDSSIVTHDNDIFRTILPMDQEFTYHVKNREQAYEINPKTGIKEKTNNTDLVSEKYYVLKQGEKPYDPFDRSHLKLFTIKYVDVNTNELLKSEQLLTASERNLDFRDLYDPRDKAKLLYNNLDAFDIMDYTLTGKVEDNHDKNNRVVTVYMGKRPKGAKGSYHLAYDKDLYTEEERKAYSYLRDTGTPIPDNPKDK

Prothrombin = Prothrombin (Homo sapiens, UniProt P00734); assay: Thrombin 1536 HTS Dose Response Confirmation. [Related pubchem assays: 1046 (Thrombin 1536 HTS; hits were confirmed in this assay)]; format: functional
Streptococcus = assay: GAS UMAA2166 growth inhibition – luminescence, BacTiterGlo, counter-screen for streptokinase expression inhibitor project, dose response (AID 1915); format: functional, organism-based;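 also: potency for reduction of bacterial viability or growth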
[10] = target: G-protein coupled receptor 55 (Homo sapiens, UniProt Q9Y2T6); assay: selective activators of receptor GPR55 – imaging, U2OS cells, beta-arrestin-GFP redistribution, primary screen (AID 1961); format: functional
Cytochrome P450 2D6 = Cytochrome P450 2D6 (Homo sapiens, UniProt P10635);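 also: CYP2D6 member of a cytochrome P450 panel assay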
Cytochrome P450 2C9 = Cytochrome P450 2C9 (Homo sapiens, UniProt P11712)
Coagulation factor XII = target: T5, Coagulation factor XII (Homo sapiens, UniProt P00748); assay: activated coagulation factor XII inhibitor potency, concentration-effect curve, cell-free (AID 716); format: functional
T5 sequence (P00748 whole entry): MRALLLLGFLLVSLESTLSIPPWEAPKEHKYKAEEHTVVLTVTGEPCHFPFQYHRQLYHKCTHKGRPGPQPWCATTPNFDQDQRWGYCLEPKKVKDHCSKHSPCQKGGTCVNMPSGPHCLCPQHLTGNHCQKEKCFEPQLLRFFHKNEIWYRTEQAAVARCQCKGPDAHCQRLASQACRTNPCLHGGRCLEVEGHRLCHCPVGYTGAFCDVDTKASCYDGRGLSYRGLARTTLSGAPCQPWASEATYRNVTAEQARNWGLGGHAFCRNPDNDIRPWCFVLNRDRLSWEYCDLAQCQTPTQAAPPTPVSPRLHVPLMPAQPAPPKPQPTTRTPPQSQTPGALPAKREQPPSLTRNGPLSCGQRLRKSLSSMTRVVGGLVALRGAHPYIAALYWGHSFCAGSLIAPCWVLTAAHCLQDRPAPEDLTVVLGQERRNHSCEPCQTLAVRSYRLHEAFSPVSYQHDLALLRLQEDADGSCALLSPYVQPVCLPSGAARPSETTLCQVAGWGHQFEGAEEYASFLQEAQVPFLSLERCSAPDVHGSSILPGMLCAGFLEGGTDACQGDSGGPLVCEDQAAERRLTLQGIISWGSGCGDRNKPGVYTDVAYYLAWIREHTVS

[11] = target: 1-acylglycerol-3-phosphate O-acyltransferase ABHD5/Perilipin-5 (Homo sapiens, UniProt Q00G26+Q8WTS1); assay: Luminescence-based biochemical high throughput dose response assay for inhibitors of the interaction of the lipase co-activator protein, abhydrolase domain containing 5 (ABHD5) with perilipin-5 (MLDP; PLIN5) (2K validation set). [Related pubchem assays (depositor defined):AID493035, AID493241]
Perilipin-1/ABHD5 = Perilipin-1/ABHD5 (Homo sapiens, UniProt O60240+Q8WTS1); assay: Luminescence-based biochemical high throughput dose response assay for inhibitors of the interaction of the lipase co-activator protein, abhydrolase domain containing 5 (ABHD5) with perilipin-1 (PLIN1) (2K validation set). [Related pubchem assays (depositor defined):AID493027, AID493057]
[12] = target: Melanin-concentrating hormone receptor 1 (Homo sapiens, UniProt Q99705); assay: Late-stage fluorescence-based counterscreen for antagonists of the G-protein coupled receptor 7 (GPR7): cell-based dose response assay to identify antagonists of the melanin-concentrating hormone receptor 1 (MCHR1). [Related pubchem assays (depositor defined):AID1861, AID1880, AID1952, AID2148, AID2251, AID2257, AID485339]; format: functional;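 also: stimulated with 30 nM MCH peptide agonist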
Protein Rev = Protein Rev (Human immunodeficiency virus type 1 group M subtype B (isolate HXB2)(HIV-1), UniProt P04618); assay: blockers of HIV Rev/RRE RNA complex – biochemical, fluorescence polarization, HIV-1, dose response (AID 434976); set-up: species or system Human immunodeficiency virus 1
[13] = target: Female germline-specific tumor suppressor gld-1 (Caenorhabditis elegans, UniProt Q17339); assay: blockers of GLD-1/TGE RNA complex formation – biochemical, fluorescence polarization, C. elegans, dose response (AID 2802);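 also: fluorescence polarization of labeled TGE RNA bound by purified gld-1 protein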
[14] = target: Induced myeloid leukemia cell differentiation protein Mcl-1 (Homo sapiens, UniProt Q07820); format: functional
[15] = microbe, parasite or virus in culture; format: functional; details: Mycobacterium tuberculosis
[16] = viability of PTEN-deleted HCT116 cells – cell-based, HCT116 PTEN knockout, dose response (AID 1047); format: functional;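 also: HCT116 colon tumor cells with PTEN knocked out; cells exposed to compound for 60 hours before readout; potency for loss of cell viability measured by luminescence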
[17] = viability of HCT116 lacking mutant beta-catenin – cell-based, human colon tumor, dose response (AID 1045); format: functional;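 also: HCT116 colon tumor cells with beta catenin knocked out; cells exposed to compound for 60 hours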
Nonstructural protein 1 = Nonstructural protein 1 (Influenza A virus, UniProt Q194T2); format: functional, Influenza A virus (A/California/07/2009(H1N1))

Structure (SMILES): COc1ccc(C(=O)OCC(=O)Nc2ccc([N+](=O)[O-])cc2OC)c(O)c1
- IC50 [1]: > 100 µM (inactive)
- IC50 [2]: > 100 µM (inactive)

Structure (SMILES): CSC(SC)=C(C#N)C(=O)c1ccccc1
- Absolute IC50 (XBP1) (X-box-binding protein 1): 10 µM
- IC50 (Genome polyprotein): 84.6 µM (active)

Structure (SMILES): Cc1cc2c(cc1C)NC(c1c(C)n(C)n(-c3ccccc3)c1=O)C1=C(O)CC(C)(C)CC1=N2 (configuration not stated)
- IC50 (Bcl-2-like protein 10): > 1.56 µM (inactive)
- EC50 [3]: 2.27 µM (active)
- EC50 [4]: > 30 µM (not active)
- EC50 [5]: > 53 µM (inactive)

Structure (SMILES): CCOC(=O)c1cnc(-c2ccccc2)nc1N
- AC50 [6]: 11.6 µM (active)

Structure (SMILES): Cc1ccccc1NC(=O)CN1C(=O)N/C(=C\c2ccccc2OCc2ccc(C(=O)O)cc2)C1=O
- IC50 [7]: > 20 µM (inactive)
- IC50 [1]: 7.28 µM (active)
- IC50 [2]: 78.5 µM (active)
- IC50 [8]: 4.3 µM (active)

Structure (SMILES): COc1ccc(C2Nc3ccccc3C(=O)N2Cc2ccccc2)cc1COc1ccccn1 (configuration not stated)
- AC50 (CAAX prenyl protease 2): 5.83 µM (active)

Structure (SMILES): Cc1ccccc1-n1cnc2cc(NCc3cccs3)ccc21
- EC50 [9]: 16.8 µM (active)
- EC50 (Streptokinase A): 87.8 µM (active)
- IC50 (Prothrombin): > 50 µM (not active)
- EC50 (Streptococcus): > 150 µM (not active)
- EC50 [10]: > 32 µM (inactive)
- AC50 (Cytochrome P450 2D6): 2.24 µM (inconclusive)
- AC50 (Cytochrome P450 2C9): 39.8 µM (inconclusive)

Structure (SMILES): N#CCn1c(C2CCCCC2)nc2ccccc2c1=O
- AC50 [6]: 13.1 µM (active)

Structure (SMILES): Cn1c(=O)c(C(=O)CN2CCCc3ccccc32)c(N)n(Cc2ccccc2)c1=O
- IC50 (Coagulation factor XII): > 50 µM (inactive)

Structure (SMILES): COc1ccc(/C=C/C(=O)c2cc3cccc(OC)c3oc2=O)cc1
- IC50 [11]: 3.3 µM (active)
- IC50 (Perilipin-1/ABHD5): 3.34 µM (active)

Structure (SMILES): CCOCC(=O)Nc1cc(-c2cn3cccnc3n2)ccc1C
- IC50 (Coagulation factor XII): > 50 µM (inactive)
- AC50 (Cytochrome P450 2C9): 22.4 µM (inconclusive)

Structure (SMILES): CC(C)c1nnc(N2C(=O)c3oc4ccccc4c(=O)c3C2c2ccco2)s1 (configuration not stated)
- Absolute IC50 (XBP1) (X-box-binding protein 1): 10 µM

Structure (SMILES): COc1ccc(Oc2c(Cl)cnn(-c3ccc(C4CC4)cc3)c2=O)cc1
- IC50 [12]: 6.8 µM (active)

Structure (SMILES): CN(C)c1ccc(/N=C2\C(=O)N(C)c3cccc4c(O)c5ccccc5c2c34)cc1
- IC50 (Protein Rev): 1.05 µM (active)
- IC50 [13]: 0.868 µM (active)
- IC50 [14]: 10.6 µM (active)

Structure (SMILES): O=C1Nc2ccccc2/C1=N\N=C\C1=C(N2CCOCC2)C(=C\c2ccccc2)/CC1
- CC50 [15]: 28.2 µM (active)
- EC50 [16]: 14.2 µM (active)
- EC50 [17]: 16 µM (active)
- EC50 [10]: > 32 µM (inactive)
- IC50 (Nonstructural protein 1): 8.08 µM (active)
